Test results taken from PMC9532951, “Identification and characterization of a novel SNAT2 (SLC38A2) inhibitor reveals synergy with glucose transport inhibition in cancer cells” (Frontiers in Pharmacology, 2022).
Several values for one entry are separate records, joined by “and”; a condition that tells them apart may be missing. Equal entries are not always repeated.

Legend:
Type in all cases: cell-based, human
SNAT1 and SNAT2 = assay: FMP assay: inhibition of glutamine-induced membrane depolarisation in amino acid depleted HCC1806 cells; settings: FMP assay, top hit compounds from the HTS, 9-point dose-response, n = 6
Protocol: (§1) The FLIPR Membrane Potential Blue Explorer Kit (Molecular Devices) was used to characterise inhibitors and to optimise a high-throughput compound screen. Cells were seeded at approximately 60,000 cells/well on a 96-well plate and allowed to attach and grow overnight in a cell incubator. […] Cells were then washed once with mHBSS and incubated with 50 µl of the mHBSS-resuspended FMP assay dye and 50 µl of mHBSS (with or without inhibitors) and incubated at room temperature for 30 min. The plate was then placed in an EnSpire Multimode plate reader (PerkinElmer) and four sequential measurements of fluorescence were recorded as a baseline reference. Immediately after the baseline measurements were taken, 25 µl of 5 mM glutamine dissolved in mHBSS was injected into each well and the plate was shaken orbitally for 5 s before a series of consecutive fluorescence measurements were taken. The excitation wavelength was set to 530 nm and the emission was detected at 565 nm. The Δ fluorescent signal reported in the figures was taken 30 s after substrate addition. After the assay was complete, the liquid content of the plate was carefully removed, and the cell monolayer inspected to ensure it remained intact throughout the course of the assay.
IC50 were calculated using equation y=ymax(1−x/x+IC50)

HPAFII cells = assay: Growth assay (IncuCyte confluence), HPAFII; parameters: key to Growth (Figure 6A) / cell confluence (Figure 6F): % confluence; settings: CB-839 10uM, replicates 1-3
Protocol: (§2) Cells were seeded on 96-well flat bottom plates at approximately 3000 cells/well and incubated in growth medium (DMEM/F12 supplemented with 10% FBS, 2 mM glutamine) for 24 h. The next day, the growth medium was aspirated and exchanged with 300 μL/well of growth medium containing compounds at the indicated concentration. For live cell analysis, plates were placed in the IncuCyte system (Essen Bioscience), which was housed in a cell incubator (37°C, humidified atmosphere composed of 95% air and 5% CO2) and confluence measured at 6-h intervals or at the assay endpoint when untreated control cells reached a confluency >90%. Antibiotics (10 U/mL penicillin and 10 μg/ml streptomycin) were included in the treatment solutions.
(§3) Growth curves were generated using the Gompertz function of OriginPro software: y=ae^−e^(−k(x−xc))
(§4) Where a is the maximum confluence or upper asymptote, k is the growth rate coefficient, xc is the time point at which 50% confluence is reached (inflection point) and e is Euler’s number. Cell growth data are shown as % confluence.
(§5) Synergism between drug combinations was quantified using ZIP synergy scoring as calculated by SynergyFinder ([Yadav et al., 2015]).

MDA-MB-231 cells = assay: Growth assay (IncuCyte confluence), MDA-MB-231; parameters: key to Growth (Figure 6A) / cell confluence (Figure 6F): % confluence; settings: MDA-MB-231; CB-839 10uM; replicates 1-3
Protocol: as §2, §3, §4, §5

SNAT1/2 = assay: FMP assay: depolarisation by amino acid substrates in amino acid depleted HCC1806 cells; settings: for FMP fluorescence reading: amino acid 1 mM final; for FMP response as substrate: 1 mM
Protocol: as §1, with “The Δ fluorescent signal reported in the figures was taken 30 s after substrate addition.” left out

SMILES	IC50 (SNAT1 and SNAT2) [µM]	FMP fluorescence reading (SNAT1/2; t=0 s)	FMP fluorescence reading (SNAT1/2; t=15 s)	FMP fluorescence reading (SNAT1/2; t=30 s)	FMP fluorescence reading (SNAT1/2; t=45 s)	FMP fluorescence reading (SNAT1/2; t=60 s)	FMP fluorescence reading (SNAT1/2; t=75 s)	FMP fluorescence reading (SNAT1/2; t=90 s)	FMP fluorescence reading (SNAT1/2; t=105 s)	FMP fluorescence reading (SNAT1/2; t=120 s)	FMP fluorescence reading (SNAT1/2; t=135 s)	FMP fluorescence reading (SNAT1/2; t=-15 s)	FMP fluorescence reading (SNAT1/2; t=-30 s, replicates 1-3)	other results
Cc1sc2nc(CN3CCC(C)CC3)nc(N3CCC(C)CC3)c2c1C [Compound 56_C]	18.4													
CCN1CCN(Cc2nn(-c3ccc(C)c(Cl)c3)c(N)c2-c2ccccc2)CC1 [Compound 55_A]	3.84													
O=C(Cc1cccc(OC(F)(F)F)c1)Nc1ccc(CCCCc2nnc(NC(=O)Cc3ccccn3)s2)nn1 [CB-839]														cell confluence (Figure 6F) (HPAFII cells): 88.1 and 96.7 and 88.9; cell confluence (Figure 6F) (MDA-MB-231 cells): 98.45 and 98.5 (2×)
C#Cc1cccc(NC(=O)N2CC(S(=O)(=O)N3CCN(C(=O)OC(C)(C)C)CC3)C2)c1 [Compound 55_G]	83.5													
NC(=O)CCC(N)C(=O)O (stereo in doubt) [D-glutamine]		42839 and 39003 and 33523	50034 and 45149 and 38644	50270 and 45056 and 39117	50350 and 45753 and 39233	50602 and 45748 and 39437	50996 and 45609 and 39481	51179 and 45923 and 39430	51145 and 45682 and 40002	51340 and 46043 and 40162	51584 and 46357 and 40097	43005 and 38805 and 33297	42947 and 39128 and 33746	
O=C(O)[C@@H]1CCCN1 [Proline]		59025 and 53021 and 43095	104996 and 86952 and 88962	110697 and 98531 and 91551	113693 and 105110 and 94295	116376 and 109453 and 95282	118353 and 112938 and 95197	118882 and 114320 and 95021	119266 and 115087 and 95127	119471 and 115780 and 93913	119506 and 115226 and 93809	58886 and 52711 and 43194	59126 and 52759 and 43032	FMP response as substrate (SNAT1/2): strongest response
N[C@@H](Cc1ccccc1)C(=O)O [Phenylalanine]		56591 and 55422 and 43224	73580 and 72052 and 58378	74725 and 73471 and 59296	75492 and 73818 and 59645	76233 and 74445 and 59921	76773 and 74969 and 60608	77388 and 75496 and 60901	77493 and 75802 and 61169	77831 and 75902 and 61002	78078 and 75738 and 60891	56780 and 55712 and 43156	56746 and 55392 and 43055	FMP response as substrate (SNAT1/2): weak signal
COC(=O)c1ccc(C(=O)N2CCc3sccc3C2c2ccccc2)s1 (centres unmarked) [Compound 57_C]	114													
